The source of these data is patent US20200276273A1, “METHOD FOR TREATING MYELOID LEUKEMIA” (UNIVERSITY OF MIAMI, priority 2017, published 2020).

One data set relates to pituitary. The following applies: biological activity on the pituitary; cited from earlier work.
The subject of a further data set is KG-1 cells. Description: Cellular uptake of fluorescently labeled MIA-602. The following applies: 2.5 μM Alexa Fluor 555 labelled peptide, 30 minutes.
For data set [1] the following is noted: nude mice, 10 μg B.i.d. s.c. An excerpt:
Eight-weeks-old female athymic nude mice (Hsd: Athymic Nude-Foxn1^nu), obtained from Harlan Laboratories, were housed in sterile cages in a temperature-controlled room with a 12-hours light\12-hours dark schedule. Mice were fed autoclaved chow and water ad libitum. Human myelogenous leukemia cells KG-1, KG-1a, K-562 and THP-1 were used in log phase of growth. Xenografts were initiated by subcutaneous (s.c.) injection of 1×10^7 cells into the right flank of nude mice. For each cell line, once tumor reached an appropriate size (approx. 40 mm3), mice were randomly divided into two groups of 15 animals each, which received s.c. injections twice a day into the left flank of, phosphate-buffered saline (PBS) ([…] containing 0.1% DMSO, or MIA-602 at a dose of 10 μg. […] At the end of the experiment, mice were sacrificed under carbon dioxide followed by cervical dislocation. All animal procedures were performed in compliance with the Guide for the Care and Use of Laboratory Animals published by the NIH, and approved by the Animal Care and Use Committee of the University of Miami.

For data set [2], the target named is GHRH splice variant 1 receptor (human).
Data set [3] has the same target. This is another data set of the same source.
For data set [4] the target is unchanged. This is another data set of the same source.
The mark [5] stands for this setting: 30 days, treated animals vs those bearing no tumors.

Starred links: 1 amine or outer side, 2 acyl side, 3 side chain; linkers in the order of their positions; H or OH if unused. Non-standard residues stand in square brackets, D forms with d. Residues, ends and D or L forms follow the SMILES beside them. *: point of attachment. Tyr(Me) = O-methyl-tyrosine, COc1ccc(C[C@H](N[*:1])C(=O)[*:2])cc1; Phe(F5) = N[C@@H](Cc1c(F)c(F)c(F)c(F)c1F)C(=O)O; hArg = N=C(N)NCCCC[C@H](N)C(=O)O; 12Ado = NCCCCCCCCCCCC(=O)O; Nle = CCCC[C@H](N)C(=O)O; Orn = NCCC[C@H](N)C(=O)O; Abu = CC[C@H](N)C(=O)O; PhAc = O=C(Cc1ccccc1)*

Procedure for KG-1 cells: For the detection of cellular uptake, MIA-602 was conjugated to Alexa Fluor 555 according to the manufacturer's instructions (Alexa Fluor 555 NHS ester, tris(triethylammonium salt, Life Technologies, Carlsbad, Calif.). Cells were incubated with 2.5 μM fluorescently labelled peptide or unconjugated fluorophore for 30 minutes (1×10^6 cells/tube). At the end of incubation, cells were washed 3 times in PBS, fixed in 4% paraformaldehyde, mounted, and imaged as described above. ImageJ software (NIH, Bethesda, Md.) was used to recolor the images, for the purpose of enhancing visual perception of cellular uptake.

As for “Tyr-Ala-Asp-Ala-Ile^5-Phe-Thr-Asn-Ser-Tyr^10-Arg-Lys-Val-Leu-Gly^15-Gln-Leu-Ser-Ala-Arg^20-Lys-Leu-Leu-Gln-Asp^25-Ile-Met-Ser-Arg^29-NH2 [GHRH(1-29)]”, the “potency retained relative to native GHRH” value in the data set on pituitary is reported as at least 50%.
Turning to “fluorescently labeled MIA-602: MIA-602 conjugated to Alexa Fluor 555 for the detection of cellular uptake ({PhAc-12Ado}-Y[dR]DAI[Phe(F5)]TA[hArg][Tyr(Me)]H[Orn]VL[Abu]QLSAH[Orn]LLQDI[Nle][dR][hArg]-NH2; also: Alexa Fluor 555 conjugated via NHS ester, site not given here)”, the cellular uptake entry in the data set on KG-1 cells is given as “not observed”.
For `CCCC[C@H](NC(=O)[C@@H](NC(=O)[C@H](CC(=O)O)NC(=O)[C@H](CCC(N)=O)NC(=O)[C@H](CC(C)C)NC(=O)[C@H](CC(C)C)NC(=O)[C@H](CCCN)NC(=O)[C@H](Cc1c[nH]cn1)NC(=O)[C@H](C)NC(=O)[C@H](CO)NC(=O)[C@H](CC(C)C)NC(=O)[C@H](CCC(N)=O)NC(=O)[C@H](CC)NC(=O)[C@H](CC(C)C)NC(=O)[C@@H](NC(=O)[C@H](CCCN)NC(=O)[C@H](Cc1c[nH]cn1)NC(=O)[C@H](Cc1ccc(OC)cc1)NC(=O)[C@H](CCCCNC(=N)N)NC(=O)[C@H](C)NC(=O)[C@@H](NC(=O)[C@H](Cc1c(F)c(F)c(F)c(F)c1F)NC(=O)[C@@H](NC(=O)[C@H](C)NC(=O)[C@H](CC(=O)O)NC(=O)[C@@H](CCCNC(=N)N)NC(=O)[C@H](Cc1ccc(O)cc1)NC(=O)CCCCCCCCCCCNC(=O)Cc1ccccc1)[C@@H](C)CC)[C@@H](C)O)C(C)C)[C@@H](C)CC)C(=O)N[C@H](CCCNC(=N)N)C(=O)N[C@@H](CCCCNC(=N)N)C(N)=O` [MIA-602, [PhAc-Ada^0-Tyr^1, D-Arg^2, Fpa5^6, Ala^8, Har^9, Tyr(Me)^10, His^11, Orn^12, Abu^15, His^20, Orn^21, Nle^27, D-Arg^28, Har^29]hGH-RH(1-29)NH2] ({PhAc-12Ado}-Y[dR]DAI[Phe(F5)]TA[hArg]Y(Me)H[Orn]VL[Abu]QLSAH[Orn]LLQDI[Nle][dR][hArg]-NH2), in data set [1] (setting [5]), the body weights entry is reported as “No significant differences”; the “weights of various organs (liver, spleen, and kidneys)” value is listed as “No significant differences”. In addition, in data set [1] (after treatment), the “macroscopic observation of organs” value is listed as “no differences”.

B1: GHRH antagonist MIA-602: [PhAc-Ada^0-Tyr^1, D-Arg^2, Fpa5^6, Ala^8, Har^9, Tyr(Me)^10, His^11, Orn^12, Abu^15, His^20, Orn^21, Nle^27, D-Arg^28, … (peptide)
peptide: {PhAc-12Ado}-Y[dR]DAI[Phe(F5)]TA[hArg][Tyr(Me)]H[Orn]VL[Abu]QLSAH[Orn]LLQDI[Nle][dR][hArg]-NH2
In turn, B1 came in with a reduction in cell proliferation (cell count, 5 µM MIA-602, 24 and 48 hours) in data set [2] of 80%. Moreover, in data set [3], the fold-change in expression of cell death-related genes (qPCR array, 24 h MIA-602) is 28.9 fold. In data set [4], the decrease of phosphorylation of Akt (Western blot, 8 h incubation with MIA-602) came to 85%.
